Key:
Assay type in all cases: in vivo
[1] = system: Surinam grass (Brachiaria decumbens); test: Test B preemergence
Summary of the method: (§1)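 Post-treatment, species sat 13–15 days under greenhouse conditions before visual scoring against controls, 0 (no effect) through 100 (complete control). Application preemergence to sown seeds or postemergence at 1- to 4-leaf stage, using a non-phytotoxic solvent/surfactant formulation.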

[2] = system: cocklebur (Xanthium strumarium); test: Test B preemergence
Summary of the method: as §1

corn (Zea mays) [3] = test: Test B preemergence
Summary of the method: as §1

[4] = system: crabgrass (Digitaria sanguinalis); test: Test B preemergence
Summary of the method: as §1

[5] = system: giant foxtail (Setaria faberii); test: Test B preemergence
Summary of the method: as §1

[6] = system: lambsquarters (Chenopodium album); test: Test B preemergence
Summary of the method: as §1

[7] = system: morning glory (Ipomoea hederacea); test: Test B preemergence
Summary of the method: as §1

[8] = system: pigweed (Amaranthus retroflexus); test: Test B preemergence
Summary of the method: as §1

rice (Oryza saliva) = test: Test B preemergence
Summary of the method: as §1

[9] = system: Surinam grass (Brachiaria decumbens); test: Test C postemergence
Summary of the method: (§2)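 Preemergence: seeds sown then treated. Postemergence: plants 2–18 cm, 1- to 4-leaf. Both with surfactant-containing solvent formulation; visual injury scored 0–100 after 12–14 d.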

[10] = system: bermudagrass (Cynodon dactylon); test: Test C postemergence
Summary of the method: as §2

[11] = system: cocklebur (Xanthium strumarium); test: Test C postemergence
Summary of the method: as §2

corn (Zea mays) [12] = test: Test C postemergence
Summary of the method: as §2

[13] = system: crabgrass (Digitaria sanguinalis); test: Test C postemergence
Summary of the method: as §2

[14] = system: giant foxtail (Setaria faberii); test: Test C postemergence
Summary of the method: as §2

[15] = system: goosegrass (Eleusine indica); test: Test C postemergence
Summary of the method: as §2

kochia (Kochia scoparia) = test: Test C postemergence
Summary of the method: as §2

[16] = system: morningglory (Ipomoea hederacea); test: Test C postemergence
Summary of the method: as §2

[17] = system: pigweed (Amaranthus retroflexus); test: Test C postemergence
Summary of the method: as §2

soybean (Glycine max) = test: Test C postemergence
Summary of the method: as §2

[18] = system: velvetleaf (Abutilon theophrasti); test: Test C postemergence
Summary of the method: as §2

[19] = system: yellow nutsedge (Cyperus esculentus); test: Test C postemergence
Summary of the method: as §2

Nightshade = test: Test C preemergence; settings: Rate 500 g/ha, visual evaluation after 12 to 14 days
[20] = Preemergence, Rate 500 g/ha, scale 0 to 100, 0 no effect, 100 complete control
[21] = preemergence, Rate 125 g/ha, scale of 0 to 100 where 0 is no effect and 100 is complete control, 13 to 15 days
[22] = Rate 125 g/ha, scale 0 to 100, 0 no effect, 100 complete control
[23] = Rate 250 g/ha, scale 0 to 100 (0 no effect, 100 complete control)
[24] = Rate 500 g/ha, scale 0 to 100 (0 no effect, 100 complete control)

CCC(C)c1ccn(C2CCN(c3ccc(Br)c(OC)c3)C2=O)n1 (centres unmarked) [Compound 142]
50: Plant response rating, Morningglory [7, 20] | Plant response rating, Goosegrass [15, 23] | Plant response rating, Velvetleaf ([18]; Rate 62 g/ha, scale 0 to 100)
70: Plant response rating, Crabgrass [13, 23] | Plant response rating, Crabgrass [13, 24] | Plant response rating, Goosegrass [15, 24] | Plant response rating, Velvetleaf ([18]; scale 0 to 100)
90: Plant response rating, Cocklebur [11, 23] | Plant response rating, Cocklebur [11, 24] | Plant response rating, Foxtail, Giant ([14]; Rate 62 g/ha, scale 0 to 100) | Plant response rating, Foxtail, Giant [14, 23] | Plant response rating, Foxtail, Giant [14, 24] | Plant response rating, Kochia (kochia (Kochia scoparia); [23]) | Plant response rating, Kochia (kochia (Kochia scoparia); [24]) | Plant response rating, Pigweed [17, 23] | Plant response rating, Pigweed [17, 24] | Plant response rating, Soybean (soybean (Glycine max); [23]) | Plant response rating, Soybean (soybean (Glycine max); [24])
80: Plant response rating, Bermudagrass [10, 24] | Plant response rating, Pigweed ([17]; Rate 62 g/ha, scale 0 to 100) | Plant response rating, Velvetleaf [18, 23] | Plant response rating, Velvetleaf [18, 24]
20: Plant response rating, Corn (corn (Zea mays) [3]; [20]) | Plant response rating, Morningglory [7, 21] | Plant response rating, Rice (rice (Oryza saliva); [21]) | Plant response rating, Surinam grass ([9]; Rate 62 g/ha, scale 0 to 100) | Plant response rating, Corn (corn (Zea mays) [12]; [24]) | Plant response rating, Morningglory ([16]; Rate 62 g/ha, scale 0 to 100) | Plant response rating, Nutsedge [19, 24]
60: Plant response rating, Cocklebur [2, 20] | Plant response rating, Bermudagrass [10, 23] | Plant response rating, Soybean (soybean (Glycine max); Rate 62 g/ha, scale 0 to 100)
30: Plant response rating, Surinam grass [9, 22] | Plant response rating, Surinam grass [9, 23] | Plant response rating, Surinam grass [9, 24] | Plant response rating, Bermudagrass ([10]; Rate 62 g/ha, scale 0 to 100) | Plant response rating, Cocklebur ([11]; Rate 62 g/ha, scale 0 to 100) | Plant response rating, Goosegrass ([15]; Rate 62 g/ha, scale 0 to 100)
100: Plant response rating, Surinam grass [1, 20] | Plant response rating, Surinam grass [1, 21] | Plant response rating, Crabgrass [4, 20] | Plant response rating, Crabgrass [4, 21] | Plant response rating, Foxtail, Giant [5, 20] | Plant response rating, Foxtail, Giant [5, 21] | Plant response rating, Lambsquarters [6, 20] | Plant response rating, Lambsquarters [6, 21] | Plant response rating, Pigweed [8, 20] | Plant response rating, Pigweed [8, 21] | Plant response rating, Morningglory [16, 23] | Plant response rating, Morningglory [16, 24] | Plant response rating (0 to 100), Nightshade (Nightshade)
0: Plant response rating, Cocklebur [2, 21] | Plant response rating, Corn (corn (Zea mays) [3]; [21]) | Plant response rating, Corn (corn (Zea mays) [12]; Rate 62 g/ha, scale 0 to 100) | Plant response rating, Corn (corn (Zea mays) [12]; [23]) | Plant response rating, Corn (corn (Zea mays) [12]; scale 0 to 100) | Plant response rating, Nutsedge ([19]; Rate 62 g/ha, scale 0 to 100) | Plant response rating, Nutsedge [19, 23]
40: Plant response rating, Rice (rice (Oryza saliva); [20]) | Plant response rating, Bermudagrass [10, 22] | Plant response rating, Crabgrass ([13]; Rate 62 g/ha, scale 0 to 100) | Plant response rating, Kochia (kochia (Kochia scoparia); Rate 62 g/ha, scale 0 to 100)

From patent US7138361B2, “Herbicidal heterocycles” (E. I. du Pont de Nemours and Company, priority 2000, dated 2006)
